Patent US10689377B2 (Mirati Therapeutics, Inc., priority 2017, dated 2020)

Key:
[1] = target: KRas G12C (Homo sapiens, UniProt P01116, G12C); assay: Cellular inhibition of KRas G12C measured by Phospho-ERK in NCI-H358 cells; format: cell-based; details: pERK(Thr202/Tyr204) normalized with GAPDH, NCI-H358 cells, 3 hours; read-out: IC50
Method in brief: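 NCI-H358 cells were allowed to attach for 8-12 hours, then exposed to compounds for 3 hours at 0.5% DMSO final. After formaldehyde fixation and methanol permeabilization, phospho-ERK (Thr202/Tyr204) was detected by in-cell immunofluorescence and normalized to GAPDH; IC50 came from a 4-parameter fit of percent-of-DMSO values.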

[2] = In vitro stability in human whole blood; format: in vitro ADME; details: male, whole blood diluted to 50% with PBS, pH 7.4, human whole blood diluted to 50% with PBS, 5 μM, 37° C., 240-minute incubation, read-out: Compound Half-life
Method in brief: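 Compounds at 5 μM final were incubated at 37° C in male human whole blood diluted to 50% with PBS pH 7.4 (pre-incubated 15 min), sampled at 0, 60 and 240 min. After RBC lysis and acetonitrile quench, analyte/diazepam IS peak area ratios were measured by LC-MS/MS MRM. % remaining versus time zero; t1/2 = ln(2)/km from first-order regression.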

Sequence of KRas G12C (P01116 1-188 isoform P01116-2 G12C): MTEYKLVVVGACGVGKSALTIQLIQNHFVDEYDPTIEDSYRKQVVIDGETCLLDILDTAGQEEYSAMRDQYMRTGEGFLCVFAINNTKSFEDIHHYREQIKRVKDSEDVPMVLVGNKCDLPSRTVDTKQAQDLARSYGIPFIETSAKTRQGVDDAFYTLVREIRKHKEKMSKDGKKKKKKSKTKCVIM

Row | IC50 [1] | half-life at 5 µM [2] | SMILES
1 | 0.1 to 1000 nM | > 33.3 h | COC/C=C/C(=O)N1CCN(c2nc(OC[C@@H]3CCCN3C)nc3c2CCN(c2cccc4cccc(C)c24)C3)C[C@@H]1CC#N [Example 511, 2-((S)-1-((E)-4-methoxybut-2-enoyl)-4-(7-(8-methylnaphthalen-1-yl)-2-(((S)-1-methylpyrrolidin-2-yl)methoxy)-5,6,7,8-tetrahydropyrido[3,4-d]pyrimidin-4-yl)piperazin-2-yl)acetonitrile]
2 | 0.1 to 1000 nM | 3.33 to 16.7 h | CN1CCC[C@H]1COc1nc2c(c(N3CCN(C(=O)/C=C/CN4CCCCC4)[C@@H](CC#N)C3)n1)CCN(c1cccc3ccccc13)C2 [Example 236, 2-((S)-4-(2-(((S)-1-methylpyrrolidin-2-yl)methoxy)-7-(naphthalen-1-yl)-5,6,7,8-tetrahydropyrido[3,4-d]pyrimidin-4-yl)-1-(E-4-(piperidin-1-yl)but-2-enoyl)piperazin-2-yl)acetonitrile]
